From US10455849B2, “Method for the preparation of a protein peptide, a protein peptide and use thereof” (INFINITUS (CHINA) COMPANY LTD., priority 2015, dated 2019)
Marks after values point to notes of the source that are not given here.

How the values were obtained:
[1] = tested on: rats having hyperuricemia induced by potassium oxonate; assay: Serum uric acid content of rats having hyperuricemia induced by potassium oxonate (tungstic acid method); assay type: in vivo, rat; conditions: allopurinol group 50 mg·kg^−1; p<0.01; day not given
Excerpt: (§1) 180 SD rats (SPF grade, male, 200±20 (g)) were provided by Laboratory Animals Centre, Guangzhou University of Chinese Medicine (License Number: SCXK(Yue)2013-0020). Reagents: allopurinol tablets (Guangdong P.D. Pharmaceutical Co., Ltd., Production batch No. 20130302); potassium oxonate (Shandong Zhongke Taidou Chemical Co., Ltd., Batch No. 120901); sodium carboxymethyl cellulose (Shanghai Celluloid Factory, Product Standard No. GB2760); uric acid assay kit (NanJing Jiancheng Bioengineering Institute, Production batch No. 20130529).
(§2) Animal grouping and modeling: 165 normal healthy SD male rats were obtained and randomly divided into normal control group (15 rats) and model group (150 rats). […] Those rats having a uric acid content of greater than 110 μmol·L^−1 were determined to be successful models. […] On 10th and 20th day after treatment with the above-described peptide samples, 50 min after the last administration, the rats were anaesthetized with 3% pentobarbitol sodium (i.p., 30 mg·kg^−1), and the blood (0.5 ml) was collected from conjunctiva and the serum uric acid content was determined. On 30th day after treatment with antigout peptides, the rats were anaesthetized with 3% pentobarbitol sodium, and 5 ml of blood was collected from coeliac artery and the content of serum creatinine and urea nitrogen were determined at the same time in addition to the serum uric acid content. […]

[2] = tested on: rats having hyperuricemia induced by potassium oxonate; assay: Serum creatinine content of rats having hyperuricemia induced by potassium oxonate (picric acid method); assay type: in vivo, rat; conditions: administration for 30 d, extracts 200 mg·kg^−1, allopurinol 50 mg·kg^−1, intragastric, x ± s
Excerpt: as §1, §2

Oc1ncnc2[nH]ncc12 [Allopurinol, allopurinol]
Effect on serum uric acid content versus model group (in words) [1]: very significant effect in the reduction of the serum uric acid
Creatinine (μmol/L) [2]: 52.9 ± 10.8^b μmol/L
